Laboratory results taken from patent US20170283834A1, “Processes for Producing A Fermentation Product Using A Fermenting Organism” (Novozymes A/S, priority 2014, published 2017).

Assays:
[1] = system: Ethanol Red™; experiment: Addition of acetate to ethanol fermentations (SSF of corn mash); settings: for % change over no added acetate: glycerol
Experimental: The yeast strain tested in this experiment was Ethanol […] ). […] After a total of 30 minutes, the flasks were removed from the water bath. Total yeast concentration was determined using the YC-100 in duplicate. LactrolTM (PhibroChem) was added to each mash to a final concentration of 24 ppm. […] Approximately 5 grams of each of the resulting mashes was transferred to test tubes having a 1/64 hole drilled in the top to allow CO2 release. […] Yeast was dosed at 5×10e6 cells/g mash. Milli-Q water was added to each tube so that a total volume of liquid added (enzyme+MQ water+acid) to each tube would be equally proportionate to the mash weight. Fermentations took place in a 32° C. water bath for 54 hours. Samples were vortexed periodically (in the morning and in the evening) throughout the fermentation. […] Fermentation sampling took place after 48 and 54 hours of fermentation by sacrificing 3 tubes per treatment. […] All samples were processed without further dilution. Samples were stored at 4° C. prior to and during HPLC analysis. Samples were analyzed for sugars (DP4+, DP3, DP2, glucose, and fructose), organic acids (lactic and acetic), glycerol, and ethanol.

[2] = system: zein; experiment: Zein-BCA assay, temperature profile of purified protease variants; type: biochemical
Experimental: Selected variants showing good thermo-stability were purified and the purified enzymes were used in a zein-BCA assay as described below. The remaining protease activity was determined at 60° C. after incubation of the enzyme at elevated temperatures as indicated for 60 min.
Zein-BCA assay was performed to detect soluble protein quantification released from zein by variant proteases at various temperatures.
• 1) Mix 10 ul of 10 ug/ml enzyme solutions and 100 ul of 0.025% zein solution in a micro titer plate (MTP). • 2) Incubate at various temperatures for 60 min. • 3) Add 10 ul of 100% trichloroacetic acid (TCA) solution. • 4) Centrifuge MTP at 3500 rpm for 5 min. • 5) Take out 15 ul to a new MTP containing 100 ul of BCA assay solution (Pierce Cat#:23225, BCA Protein Assay Kit). • 6) Incubate for 30 min. at 60° C. • 7) Measure A562.

[3] = system: zein; experiment: Relative activity assay of protease variants (zein micro titer plate); type: biochemical
Summary of the method: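 Yeast culture supernatants (3 days, 28 °C) incubated over 4 h or overnight on zein-agar plates (pH 4.5 acetate, 0.25 mM ZnSO4) at two temperatures. Zein turbidity read at A630; higher/lower-temperature activity ratio gives relative thermoactivity.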

[4] = Sample incubated 60 min at 60° C.
[5] = Sample incubated 60 min at 70° C.
[6] = Sample incubated 60 min at 75° C.
[7] = Sample incubated 60 min at 80° C.
[8] = Sample incubated 60 min at 85° C.
[9] = Sample incubated 60 min at 90° C.
[10] = Sample incubated 60 min at 95° C.

CC(=O)O [Acetate, acetic acid]
Glycerol levels with added acetate [1]: reduced | 48 Hour ETOH (w/v %) ([1]; Added Acetate 5 mM, 48 hours): 13.55 w/v % | 48 Hour Glycerol (w/v %) ([1]; Added Acetate 5 mM, 48 hours): 1.636 w/v % | % Boost over no added acetate ([1]; Added Acetate 5 mM, 48 hours): 0.28% | 54 Hour ETOH (w/v %) ([1]; Added Acetate 5 mM, 54 hours): 13.71 w/v % | 54 Hour Glycerol (w/v %) ([1]; Added Acetate 5 mM, 54 hours): 1.625 w/v % | % Boost over no added acetate ([1]; Added Acetate 5 mM, 54 hours): 0.97% | 48 Hour ETOH (w/v %) ([1]; Added Acetate 10 mM, 48 hours): 13.66 w/v % | 48 Hour Glycerol (w/v %) ([1]; Added Acetate 10 mM, 48 hours): 1.553 w/v % | % Boost over no added acetate ([1]; Added Acetate 10 mM, 48 hours): 1.07% | 54 Hour ETOH (w/v %) ([1]; Added Acetate 10 mM, 54 hours): 13.73 w/v % | 54 Hour Glycerol (w/v %) ([1]; Added Acetate 10 mM, 54 hours): 1.569 w/v % | % Boost over no added acetate ([1]; Added Acetate 10 mM, 54 hours): 1.10% | 48 Hour ETOH (w/v %) ([1]; Added Acetate 20 mM, 48 hours): 13.77 w/v % | 48 Hour Glycerol (w/v %) ([1]; Added Acetate 20 mM, 48 hours): 1.462 w/v % | % Boost over no added acetate ([1]; Added Acetate 20 mM, 48 hours): 1.88% | 54 Hour ETOH (w/v %) ([1]; Added Acetate 20 mM, 54 hours): 13.83 w/v % | 54 Hour Glycerol (w/v %) ([1]; Added Acetate 20 mM, 54 hours): 1.45 w/v % | % Boost over no added acetate ([1]; Added Acetate 20 mM, 54 hours): 1.90% | 48 Hour ETOH (w/v %) ([1]; Added Acetate 40 mM, 48 hours): 13.82 w/v % | 48 Hour Glycerol (w/v %) ([1]; Added Acetate 40 mM, 48 hours): 1.365 w/v % | % Boost over no added acetate ([1]; Added Acetate 40 mM, 48 hours): 2.29% | 54 Hour ETOH (w/v %) ([1]; Added Acetate 40 mM, 54 hours): 13.83 w/v % | 54 Hour Glycerol (w/v %) ([1]; Added Acetate 40 mM, 54 hours): 1.365 w/v % | % Boost over no added acetate ([1]; Added Acetate 40 mM, 54 hours): 1.84% | 48 Hour ETOH (w/v %) ([1]; Added Acetate 60 mM, 48 hours): 13.88 w/v % | 48 Hour Glycerol (w/v %) ([1]; Added Acetate 60 mM, 48 hours): 1.332 w/v % | % Boost over no added acetate ([1]; Added Acetate 60 mM, 48 hours): 2.71% | 54 Hour ETOH (w/v %) ([1]; Added Acetate 60 mM, 54 hours): 13.83 w/v % | 54 Hour Glycerol (w/v %) ([1]; Added Acetate 60 mM, 54 hours): 1.323 w/v % | % Boost over no added acetate ([1]; Added Acetate 60 mM, 54 hours): 1.84% | 48 Hour ETOH (w/v %) ([1]; Added Acetate 120 mM, 48 hours): 12.92 w/v % | 48 Hour Glycerol (w/v %) ([1]; Added Acetate 120 mM, 48 hours): 1.337 w/v % | % Boost over no added acetate ([1]; Added Acetate 120 mM, 48 hours): −4.41% | 54 Hour ETOH (w/v %) ([1]; Added Acetate 120 mM, 54 hours): 12.94 w/v % | 54 Hour Glycerol (w/v %) ([1]; Added Acetate 120 mM, 54 hours): 1.34 w/v % | % Boost over no added acetate ([1]; Added Acetate 120 mM, 54 hours): −4.68% | % change over no added acetate ([1]; Added Acetate 5 mM, 48 hours): −4.68% | % change over no added acetate ([1]; Added Acetate 5 mM, 54 hours): −3.86% | % change over no added acetate ([1]; Added Acetate 10 mM, 48 hours): −9.53% | % change over no added acetate ([1]; Added Acetate 10 mM, 54 hours): −7.18% | % change over no added acetate ([1]; Added Acetate 20 mM, 48 hours): −14.85% | % change over no added acetate ([1]; Added Acetate 20 mM, 54 hours): −14.21% | % change over no added acetate ([1]; Added Acetate 40 mM, 48 hours): −20.48% | % change over no added acetate ([1]; Added Acetate 40 mM, 54 hours): −19.21% | % change over no added acetate ([1]; Added Acetate 60 mM, 48 hours): −22.40% | % change over no added acetate ([1]; Added Acetate 60 mM, 54 hours): −21.70% | % change over no added acetate ([1]; Added Acetate 120 mM, 48 hours): −22.09% | % change over no added acetate ([1]; Added Acetate 120 mM, 54 hours): −20.68%

B1: WT: wild type Thermoascus aurantiacus M35 metallo protease, mature peptide amino acids 1 to 177 of SEQ ID NO: 3, no substitution (protein, listed as Thermoascus aurantiacus)
chain: MRLVASLTALVALSVPVFPAAVNVKRASSYLEITLSQVSNTLIKAVVQNTGSDELSFVHLNFFKDPAPVKKVSVYRDGSEVQFEGILSRYKSTGLSRDAFTYLAPGESVEDVFDIASTYDLTSGGPVTIRTEGVVPYATANSTDIAGYISYSSNVLTIDVDGAAAATVSKAITPLDR
Bovine serum albumin equivalent peptide released [2, 4]: 94 µg/mL | Bovine serum albumin equivalent peptide released [2, 5]: 103 µg/mL | Bovine serum albumin equivalent peptide released [2, 6]: 107 µg/mL | Bovine serum albumin equivalent peptide released [2, 7]: 93 µg/mL | Bovine serum albumin equivalent peptide released [2, 8]: 58 µg/mL | Bovine serum albumin equivalent peptide released [2, 9]: 38 µg/mL | Relative activity 65° C./60° C. ([3]; Table 2): 31% | Relative activity 70° C./65° C. ([3]; Table 3): 59% | Relative activity 75° C./65° C. ([3]; Table 3): 17%

B2: JTP050: protease variant of SEQ ID NO: 3: D79L/S87P/A112P/D142L (protein, listed as Thermoascus aurantiacus)
chain: MRLVASLTALVALSVPVFPAAVNVKRASSYLEITLSQVSNTLIKAVVQNTGSDELSFVHLNFFKDPAPVKKVSVYRDGSEVQFEGILSRYKSTGLSRDAFTYLAPGESVEDVFDIASTYDLTSGGPVTIRTEGVVPYATANSTDIAGYISYSSNVLTIDVDGAAAATVSKAITPLDRRTRISSCSGSRQSALTTALRNAASLANAAADAAQSGSASKFSEYFKTTSSSTRQTVAARLRAVAREASSSSSGATTYYCLDPYGYCSPNVLAYTLPSYNIIANCDIFYTYLPPLTSTCHAQDQATTALHEFTHAPGVYSPGTLDLAYGYQAAMGLSSSQAVMNADTYALYANAIYLGC
Bovine serum albumin equivalent peptide released [2, 4]: 86 µg/mL | Bovine serum albumin equivalent peptide released [2, 5]: 101 µg/mL | Bovine serum albumin equivalent peptide released [2, 6]: 107 µg/mL | Bovine serum albumin equivalent peptide released [2, 7]: 107 µg/mL | Bovine serum albumin equivalent peptide released [2, 8]: 104 µg/mL | Bovine serum albumin equivalent peptide released [2, 9]: 63 µg/mL | Bovine serum albumin equivalent peptide released [2, 10]: 36 µg/mL | Relative activity 75° C./65° C. ([3]; Table 3): 88% | Relative activity 75° C./70° C. ([3]; Table 5, upper part): 55% | Relative activity 80° C./70° C. ([3]; Table 5, upper part): 23% | Relative activity 85° C./70° C. ([3]; Table 5, upper part): 9%

B3: JTP077: protease variant of SEQ ID NO: 3: A27K/D79L/S87P/A112P/D142L (protein, listed as Thermoascus aurantiacus)
chain: MRLVASLTALVALSVPVFPAAVNVKRASSYLEITLSQVSNTLIKAVVQNTGSDELSFVHLNFFKDPAPVKKVSVYRDGSEVQFEGILSRYKSTGLSRDAFTYLAPGESVEDVFDIASTYDLTSGGPVTIRTEGVVPYATANSTDIAGYISYSSNVLTIDVDGAAAATVSKAITPLDRRTRISSCSGSRQSALTTALRNAASLANKAADAAQSGSASKFSEYFKTTSSSTRQTVAARLRAVAREASSSSSGATTYYCLDPYGYCSPNVLAYTLPSYNIIANCDIFYTYLPPLTSTCHAQDQATTALHEFTHAPGVYSPGTLDLAYGYQAAMGLSSSQAVMNADTYALYANAIYLGC
Bovine serum albumin equivalent peptide released [2, 4]: 82 µg/mL | Bovine serum albumin equivalent peptide released [2, 5]: 94 µg/mL | Bovine serum albumin equivalent peptide released [2, 6]: 104 µg/mL | Bovine serum albumin equivalent peptide released [2, 7]: 105 µg/mL | Bovine serum albumin equivalent peptide released [2, 8]: 99 µg/mL | Bovine serum albumin equivalent peptide released [2, 9]: 56 µg/mL | Bovine serum albumin equivalent peptide released [2, 10]: 31 µg/mL | Relative activity 75° C./65° C. ([3]; Table 3): 106%

B4: JTP188: protease variant of SEQ ID NO: 3: D79L Y82F S87G D104P A112P D142L (protein, listed as Thermoascus aurantiacus)
chain: MRLVASLTALVALSVPVFPAAVNVKRASSYLEITLSQVSNTLIKAVVQNTGSDELSFVHLNFFKDPAPVKKVSVYRDGSEVQFEGILSRYKSTGLSRDAFTYLAPGESVEDVFDIASTYDLTSGGPVTIRTEGVVPYATANSTDIAGYISYSSNVLTIDVDGAAAATVSKAITPLDRRTRISSCSGSRQSALTTALRNAASLANAAADAAQSGSASKFSEYFKTTSSSTRQTVAARLRAVAREASSSSSGATTYYCLDPFGYCSGNVLAYTLPSYNIIANCPIFYTYLPPLTSTCHAQDQATTALHEFTHAPGVYSPGTLDLAYGYQAAMGLSSSQAVMNADTYALYANAIYLGC
Bovine serum albumin equivalent peptide released [2, 4]: 71 µg/mL | Bovine serum albumin equivalent peptide released [2, 5]: 83 µg/mL | Bovine serum albumin equivalent peptide released [2, 6]: 86 µg/mL | Bovine serum albumin equivalent peptide released [2, 7]: 93 µg/mL | Bovine serum albumin equivalent peptide released [2, 8]: 100 µg/mL | Bovine serum albumin equivalent peptide released [2, 9]: 75 µg/mL | Bovine serum albumin equivalent peptide released [2, 10]: 53 µg/mL | Relative activity 80° C./70° C. ([3]; Table 5, upper part): 43%

B5: JTP196: protease variant of SEQ ID NO: 3: A27K D79L Y82F S87G D104P A112P A126V D142L (protein, listed as Thermoascus aurantiacus)
chain: MRLVASLTALVALSVPVFPAAVNVKRASSYLEITLSQVSNTLIKAVVQNTGSDELSFVHLNFFKDPAPVKKVSVYRDGSEVQFEGILSRYKSTGLSRDAFTYLAPGESVEDVFDIASTYDLTSGGPVTIRTEGVVPYATANSTDIAGYISYSSNVLTIDVDGAAAATVSKAITPLDRRTRISSCSGSRQSALTTALRNAASLANKAADAAQSGSASKFSEYFKTTSSSTRQTVAARLRAVAREASSSSSGATTYYCLDPFGYCSGNVLAYTLPSYNIIANCPIFYTYLPPLTSTCHAQDQATTVLHEFTHAPGVYSPGTLDLAYGYQAAMGLSSSQAVMNADTYALYANAIYLGC
Bovine serum albumin equivalent peptide released [2, 4]: 87 µg/mL | Bovine serum albumin equivalent peptide released [2, 5]: 99 µg/mL | Bovine serum albumin equivalent peptide released [2, 6]: 103 µg/mL | Bovine serum albumin equivalent peptide released [2, 7]: 106 µg/mL | Bovine serum albumin equivalent peptide released [2, 8]: 117 µg/mL | Bovine serum albumin equivalent peptide released [2, 9]: 90 µg/mL | Bovine serum albumin equivalent peptide released [2, 10]: 38 µg/mL | Relative activity 75° C./70° C. ([3]; Table 5, lower part): 102% | Relative activity 80° C./70° C. ([3]; Table 5, lower part): 55% | Relative activity 85° C./70° C. ([3]; Table 5, upper part): 18%
